Tests used:
[1] = tested on: DLEC1 expression in ESCC, lung and NPC carcinoma cell lines; assay: Demethylation treatment (Aza, TSA) and DLEC1 expression / promoter methylation analysis (RT-PCR, MSP, BGS); format: cell-based, human
Excerpt: A panel of ESCC, NPC and lung carcinoma cell lines was used. Immortalized normal esophageal epithelial (NE1, NE3, Het-1A), normal nasopharyngeal epithelial (NP69) and HEK293T cell lines were used. Cell lines were maintained in RPMI or DMEM medium (Gibco BRL, Rockville, Md.) with 10% fetal bovine serum. Human normal adult tissue RNA samples were obtained commercially (Stratagene, La Jolla, Calif., or Millipore Chemicon, Billerica, Mass.). Primary carcinoma tissues of Chinese ESCC, NPC and lung, some with matched normal samples, have been descried before. Cell lines were treated with 5 μM of 5-Aza-2′-deoxycytidine (Aza) (Sigma, St. Louis, Mo.) for 3 days, or even followed with ˜16 h additional TSA (final concentration […]) treatment as described. MSP and BGS were conducted according to previous reports. MSP was conducted for 40 cycles at the annealing temperatures of 60° C. for M and 58° C. for U. Amplified products from BGS primer set were cloned into pCR4-Topo vector (Invitrogen, Carlsbad, Calif.), with 6-8 colonies randomly chosen and sequenced. RNA was reverse-transcribed using MuLV reverse transcriptase (GeneAmp RNA PCR kit, Applied Biosystems). RT-PCR was performed as described previously using GAPDH as a control.

DLEC1 CGI = assay: ChIP assay, acetylated histone H4; format: cell-based, human; conditions: carcinoma cells following TSA treatment
Protocol: ChIP assay was performed as described previously. Antibody to acetylated histone H4 (Upstate Biotechnology) was used to precipitate cross-linked chromatin. ACTIN was employed as a control for normalization of each PCR product.

[2] = tested on: ESCC, lung and NPC carcinoma cells; assay: Transwell migration and Matrigel invasion assays; format: cell-based, human; conditions: transwell assay, ectopic expression of DLEC1
Protocol: Transwell migration and invasion assays were performed as previously described. The numbers of migrated or invaded cells were observed and counted using a light microscope. Five fields were randomly chosen and the numbers of penetrated cells were counted.

carcinoma cells [3] = assay: EMT, actin stress fiber and stemness marker analysis (immunofluorescence, Western blot, qPCR); format: cell-based, human
Protocol: RNA was reverse-transcribed using MuLV reverse transcriptase (GeneAmp RNA PCR kit, Applied Biosystems). RT-PCR was performed as described previously using GAPDH as a control.
Cells grown on coverslips were stained by indirect immunofluorescence as described previously. Briefly, cells were incubated with primary antibodies against DLEC1, E-cadherin, or Vimentin and then incubated with Alexa Fluor 594-conjugated secondary antibody against mouse IgG (A11062) (Invitrogen Molecular Probes, Carlsbad, Calif.), or FITC-conjugated secondary antibody against rabbit IgG (F0205) (DAKO, Denmark). To analyze the effects of DLEC1 on actin stress fiber formation, cells were serum starved for 24 h before incubation in medium-containing 5% fetal bovine serum. After 1 h, cells were fixed and stained by Rhodamine-labeled phalloidin (Invitrogen Molecular Probes). Cells were then counterstained with DAPI and imaged with an Olympus BX51 microscope (Olympus Corporation, Tokyo, Japan).

JAK2 = molecular target: T1, JAK2 (Homo sapiens, UniProt O60674); assay: Co-immunoprecipitation with JAK2; format: binding
T1 construct: endogenous in cells; host or cells: HEK293T
T1 sequence (O60674 whole entry): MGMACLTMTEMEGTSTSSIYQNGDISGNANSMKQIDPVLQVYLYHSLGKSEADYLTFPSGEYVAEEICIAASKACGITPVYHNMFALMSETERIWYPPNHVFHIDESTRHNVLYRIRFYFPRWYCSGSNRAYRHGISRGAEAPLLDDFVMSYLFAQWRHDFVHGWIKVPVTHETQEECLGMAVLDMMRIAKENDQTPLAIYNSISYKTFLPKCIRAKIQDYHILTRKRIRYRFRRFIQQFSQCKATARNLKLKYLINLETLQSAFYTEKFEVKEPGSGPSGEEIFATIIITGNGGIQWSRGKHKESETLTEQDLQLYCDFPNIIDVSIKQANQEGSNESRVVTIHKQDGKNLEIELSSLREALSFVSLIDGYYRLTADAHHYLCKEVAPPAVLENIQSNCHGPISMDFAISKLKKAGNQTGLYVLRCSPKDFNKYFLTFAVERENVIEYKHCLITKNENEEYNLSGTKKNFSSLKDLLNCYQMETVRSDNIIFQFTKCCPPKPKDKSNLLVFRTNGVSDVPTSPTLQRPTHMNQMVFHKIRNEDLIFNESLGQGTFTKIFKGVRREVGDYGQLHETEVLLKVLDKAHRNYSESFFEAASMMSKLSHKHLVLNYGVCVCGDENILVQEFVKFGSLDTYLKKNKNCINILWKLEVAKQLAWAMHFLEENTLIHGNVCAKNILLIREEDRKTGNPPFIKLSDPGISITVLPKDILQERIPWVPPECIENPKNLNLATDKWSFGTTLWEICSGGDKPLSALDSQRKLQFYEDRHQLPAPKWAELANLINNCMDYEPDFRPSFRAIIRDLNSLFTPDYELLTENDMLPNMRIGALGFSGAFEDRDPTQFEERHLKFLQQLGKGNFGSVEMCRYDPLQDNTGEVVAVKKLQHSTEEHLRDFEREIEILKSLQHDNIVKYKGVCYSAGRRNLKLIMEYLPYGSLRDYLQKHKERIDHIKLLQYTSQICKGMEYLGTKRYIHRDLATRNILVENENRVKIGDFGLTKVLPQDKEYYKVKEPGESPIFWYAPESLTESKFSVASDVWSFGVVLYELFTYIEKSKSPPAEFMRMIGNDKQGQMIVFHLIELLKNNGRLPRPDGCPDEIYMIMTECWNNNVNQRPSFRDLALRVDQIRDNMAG
Protocol: (§1) Human IL-6 (PF01229) (Peprotech, Rocky Hill, N.J.) was used. Western blot and IP experiments were performed according to previous protocols.

STAT3 = molecular target: T2, STAT3 (Homo sapiens, UniProt P40763); assay: Co-immunoprecipitation with STAT3; format: binding
T2 construct: Association of endogenous DLEC1 and STAT3 proteins in HEK293T cells; endogenous in cells; host or cells: HEK293T
T2 sequence (P40763 whole entry): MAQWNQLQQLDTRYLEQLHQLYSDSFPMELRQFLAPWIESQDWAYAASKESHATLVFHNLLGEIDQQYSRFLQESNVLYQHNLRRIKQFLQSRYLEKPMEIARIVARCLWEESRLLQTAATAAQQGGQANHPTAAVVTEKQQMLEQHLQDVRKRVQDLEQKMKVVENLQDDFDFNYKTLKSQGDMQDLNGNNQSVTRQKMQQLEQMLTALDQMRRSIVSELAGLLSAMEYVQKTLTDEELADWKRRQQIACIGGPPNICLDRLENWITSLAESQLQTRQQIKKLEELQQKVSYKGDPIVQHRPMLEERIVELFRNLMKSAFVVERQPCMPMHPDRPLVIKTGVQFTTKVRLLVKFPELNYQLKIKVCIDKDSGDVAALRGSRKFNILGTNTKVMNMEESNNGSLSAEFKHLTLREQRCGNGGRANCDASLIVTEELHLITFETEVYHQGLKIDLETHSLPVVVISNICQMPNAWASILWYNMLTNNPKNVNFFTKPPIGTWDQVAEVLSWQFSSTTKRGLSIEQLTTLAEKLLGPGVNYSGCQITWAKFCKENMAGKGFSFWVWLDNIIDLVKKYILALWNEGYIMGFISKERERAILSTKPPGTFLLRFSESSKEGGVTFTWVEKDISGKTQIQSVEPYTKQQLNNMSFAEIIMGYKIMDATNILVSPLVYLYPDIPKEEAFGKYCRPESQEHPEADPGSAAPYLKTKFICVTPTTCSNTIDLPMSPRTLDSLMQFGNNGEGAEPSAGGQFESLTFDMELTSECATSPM
Protocol: as §1

[4] = tested on: KYSE150, H1299 and HONE1 cells; assay: Cell cycle analysis by flow cytometry (propidium iodide); format: cell-based, human; conditions: DLEC1-expressing KYSE150, H1299 and HONE1 cells
Excerpt: (§2) Flow cytometry analysis of cell cycle and apoptosis was described previously. Cells were stained with propidium iodide (PI) and Annexin V-FITC (BD Biosciences, Bedford, Mass.), and sorted by Accuri C6 (BD Biosciences, Bedford, Mass.) according to the manufacturer's protocol.

[5] = tested on: ESCC, lung and NPC carcinoma cells; assay: Monolayer colony formation assay; format: cell-based, human; conditions: ectopically expressed DLEC1 in ESCC
Protocol: (§3) Four pairs of primers (Table 6) were used to generate 4 DLEC1 fragments based on published DLEC1 sequence (GenBank accession number AB020522). Reverse transcription was carried out using normal testis RNA as template (BD Biosciences, Palo Alto, Calif.). The 4 product fragments were ligated to generate pcDNA3.1(+)-Flag-DLEC1 and pCMV-Flag-DLEC1-V5 expression plasmids. The mutation for three YXXQ motifs of DLEC1 (DLEC1-3Y, YXXQ-GGGG (“GGGG” disclosed as SEQ ID NO: 7)) was introduced by PCR into pCMV-Flag-DLEC1-V5 vector, with sequence confirmed. STAT3C expression plasmid was a gift from Prof. Honglin Chen (University of Hong Kong). Cells were transfected with lipofectamine 3000 (Invitrogen, Carlsbad, Calif.), and the cells were cultured in RPMI 1640 supplemented with 10% FBS and selected in 400 μg/mL of G418 for 20-30 days to establish some stable cell pools, with confirmed DLEC1 expression.
(§4) Colony formation assay was conducted as previously described. All experiments were performed in triplicate wells 3 times. To monitor cell proliferation, 1000 cells were plated in a 96-well plate and incubated at 37° C. in selective media for 3-(4,5-dimethylthiazolyl-2)-2,5-diphenyltetrazolium bromide (MTT) assay.

[6] = tested on: p-ERK, p-AKT, p-STAT3, active β-catenin; assay: Western blot of signaling protein phosphorylation; format: cell-based, human
Protocol: as §1

[7] = tested on: NF-κB, AP-1, STATs-bs, TopFlash, SRE and PAI-1 reporters; assay: Dual-luciferase reporter assay of signaling pathways; format: cell-based, human; conditions: carcinoma cells (ESCC, lung, NPC) or immortalized normal epithelial cells (NP69)
Protocol: The promoter activities were determined by luciferase reporter assays. Luciferase reporters of several key signaling pathways, including NF-κB-luc, AP-1-luc, SRE-luc, STATs-bs-luc, TopFlash-luc, and PAI-luc were used to examine signaling pathway regulated by DLEC1 Cells were transiently co-transfected with DLEC1 expression vector and phRL-TK […]. […] After 48 h, cells were lysed and luciferase activities were measured using Dual-Luciferase® Reporter Assay System (Promega, Madison, Wis.). To normalize transfection efficiency, phRL-TK luciferase activities were measured as an internal control. At least three independent experiments were performed, with each repeated in triplicates.

carcinoma cells [8] = assay: Scratch wound-healing assay; format: cell-based, human; conditions: confluent monolayer, versus mock cells
Protocol: Cell motility was assessed using a scratch wound-healing assay. Cells transient transfected with DLEC1 were cultured in 6-well plates until confluent. A single scratch was produced in the cell layer using a sterile tip. After incubation for 24 and 48 hours, cells were photographed under a phase contrast microscope. The experiments were performed in triplicates.

carcinoma cells [9] = assay: Cell apoptosis assay (Annexin V-FITC/PI flow cytometry, Western blot of apoptosis markers); format: cell-based, human
Protocol: as §2, §1

[10] = tested on: multiple carcinoma cells stably-expressing DLEC1; assay: Cell proliferation (MTT) assay; format: cell-based, human
Protocol: as §3, §4

In the case of Nc1ncn([C@H]2C[C@H](O)[C@@H](CO)O2)c(=O)n1 [Aza, 5-aza-2′-deoxycytidine], the “Expression of DLEC1” value ([1]; NPC cells) is reported as “restored or increased” and the DLEC1 expression ([1]; cell lines of ESCC, lung and NPC with silenced DLEC1, 5 μM Aza for 3 days, or followed with ~16 h TSA) is reported as “increased”.
CC(/C=C/C(=O)NO)=C\[C@@H](C)C(=O)c1ccc(N(C)C)cc1 [TSA, Trichostatin A] was tested, and the “binding of acetylated histone 4 to the DLEC1 CGI” value (DLEC1 CGI) was “increased” and the DLEC1 expression ([1]; TSA-treated lung carcinoma cell line H1299) was “moderately induced”.
For “DLEC1: 1755-amino acid human DLEC1 protein (SEQ ID NO:4), ectopically expressed from pcDNA3.1(+)-Flag-DLEC1 / pCMV-Flag-DLEC1-V5 plasmids”, the cell invasion [2] was “dramatically suppressed”, the cell migration [2] was “dramatically suppressed” and the “stem cell markers (STAT3, CD44, ABCG2, TWIST and KLF4)” value (carcinoma cells [3]; ESCC and lung carcinoma cells, qPCR) was “downregulated”. For the same compound, the “E-cadherin, vimentin and metastasis markers (MMP7, Twist)” value (carcinoma cells [3]; Western blot) was “Upregulated E-cadherin and downregulated vimentin and metastasis markers (MMP7, Twist)”, the “formation of actin stress fibers” value (carcinoma cells [3]; carcinoma cells) was “disassembled” and the “EMT markers E-cadherin and vimentin” value (carcinoma cells [3]; immunofluorescence) was “gain of epithelial marker E-cadherin and loss of mesenchymal marker vimentin”. For the same compound, the “interaction of STAT3 with JAK2” value (JAK2; IL-6 dependent manner) was “inhibited”, the “interaction with JAK2 and p-STAT3 (Tyr705)” value (JAK2; IL-6 stimulation) was “decreasing” and the “co-precipitation of JAK2” value (JAK2; endogenous proteins, HEK293T cells) was “relatively weaker co-precipitation”. For the same compound, the “interaction of DLEC1 with STAT3” value (STAT3; IL-6 stimulation) was “increased”, the “interaction with STAT3/p-STAT3 (Tyr705)” value (STAT3; endogenous proteins, HEK293T cells, immunoprecipitation) was “strong interaction” and the cell cycle distribution [4] was “increased G2-M phase cells and decreased S phase cells”. For the same compound, the “colony numbers and sizes compared to controls” value [5] was 10-40%, the “levels of p-ERK (Thr202/Tyr204), p-AKT (Ser473), p-STAT3 (Tyr705 and Ser727) and active β-catenin” value ([6]; DLEC1-expressing carcinoma cells) was “significantly decreased” and the “IL-6 treatment-enhanced STAT3 phosphorylation levels” value ([6]; IL-6 10 ng/mL for 30 min, KYSE150 and H1299 cells) was “suppress”. For the same compound, the “p-STAT3 levels at both Tyr705 and Ser727 sites” value ([6]; STAT3C-transfected carcinoma cells) was “greatly suppressed”, the “p-STAT3 (Tyr705)” value ([6]; increasing doses of DLEC1-expressing plasmids, dose-dependent) was “Marked decrease” and the “reporter activities of NF-κB, AP-1, STATs-bs, TopFlash, SRE and PAI-1 elements-regulated promoters” value [7] was “markedly repressed”. The “closing of artificial wounds” value (carcinoma cells [8]) was “less proficiency in closing artificial wounds than mock cells”, the “apoptosis markers (cleaved caspase-3 and PARP)” value (carcinoma cells [9]; Western blot) was “increase” and the apoptotic cells (carcinoma cells [9]; after transfection with DLEC1-expression vector) was “significantly increased”. The growth rates [10] was “slower growth rates”.

Source: patent publication US11746383B2, “Biomarker DLEC1 for cancer” (The Chinese University of Hong Kong, priority 2018, dated 2023)
